# Source: PubChem BioAssay (NCI)
# Where “and” joins values, the source holds several entries; their conditions need not be identical. Identical values can stand only once.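 Assay format: 96-well plates, 48-hour exposure. Here, GI50 denotes the concentration required for 50% inhibition of growth. The concentration for full growth arrest is given as TGI.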
# How the values were obtained:
# Assay in all cases: NCI anticancer screen, dose series, 48 h
# RXF 393 renal = system: RXF 393 renal
# OVCAR-3 ovarian = system: OVCAR-3 ovarian
# MDA-MB-435 = system: MDA-MB-435
# HL-60(TB) leukemia = system: HL-60(TB) leukemia
# SR leukemia = system: SR leukemia
# MCF7 breast = system: MCF7 breast
# UACC-257 melanoma = system: UACC-257 melanoma
# KM12 colon = system: KM12 colon
# DU-145 prostate = system: DU-145 prostate
# TK-10 renal = system: TK-10 renal
SMILES,GI50 (RXF 393 renal) [nM],TGI (RXF 393 renal),GI50 (OVCAR-3 ovarian) [nM],TGI (OVCAR-3 ovarian),GI50 (MDA-MB-435) [nM],TGI (MDA-MB-435) [µM],GI50 (HL-60(TB) leukemia) [nM],TGI (HL-60(TB) leukemia),GI50 (SR leukemia) [nM],TGI (SR leukemia) [µM],GI50 (MCF7 breast) [nM],TGI (MCF7 breast) [µM],GI50 (UACC-257 melanoma) [µM],TGI (UACC-257 melanoma),GI50 (KM12 colon) [nM],TGI (KM12 colon),GI50 (DU-145 prostate) [µM],TGI (DU-145 prostate) [µM],GI50 (TK-10 renal) [µM],TGI (TK-10 renal) [µM]
Fc1[nH]nc2ccc([C@@H]3Nc4ccc5[nH]ncc5c4[C@H]4C5CCC(C5)[C@@H]34)cc12 (stereo not given in full),1220,7.8 µM,390,2.97 µM,286,1.08,348,1.69 µM,370,3.61,387,12.6,10.4,23.9 µM,559,11.5 µM,3.22,14.9,3.51,15.5
OC1CSSC1Cn1cnc2c(Nc3ccc(OCc4cccc(F)c4)c(Cl)c3)ncnc21 (stereo not given),5120,10.7 µM,748,1.93 µM,350,0.788,3470,20.8 µM,407,1.59,509,1.29,4.09,15.4 µM,386,1.43 µM,1.19,4.95,1.15,5.01
COc1cccc(C2c3cc4c(cc3OC(C)(N3CCCC3)C2C)OCO4)c1O (stereo not given),–,> 40.6 µM,–,5.45 µM,–,3.82,–,6.01 µM,–,19.3,–,> 37.1,–,> 100 µM,–,27.4 µM,–,15.3,–,77.1
CN1CCN(C2=NCCO2)CC1,–,> 100 µM,–,> 100 µM,–,> 100,–,> 100 µM,–,> 100,–,> 100,–,> 100 µM,–,> 100 µM,–,> 100,–,> 100
CCOC(=O)/C=C/CC(C)(C)CCOC(C)=O,–,> 10 µM,–,> 10 µM,–,> 10,–,> 10 µM,–,> 10,–,> 10,–,> 10 µM,–,> 10 µM,–,> 10,–,> 10
COC(=O)/C=C1\S/C(=N\NC(=O)c2cc3ccc2/C=C\c2ccc(cc2)/C=C\3)N(c2ccccc2)C1=O,1520,3.86 µM,1800,3.61 µM,5440,> 100,2700,> 100 µM,2460,> 100,1870,4.95,5.14,> 100 µM,2030,4.15 µM,5.11,35.3,2.03,5.6
NS(=O)(=O)OC[C@@H]1C[C@@H](n2ccc3c(NC4CCc5ccccc54)ncnc32)C[C@@H]1O (stereo not given in full),11200,37.1 µM,2930,33.7 µM,5750,> 100,214,14 µM,82.7,29.5,38.6,> 100,1.02,> 90.7 µM,1130,49.1 µM,0.384,> 100,14.1,> 100
Cc1ccc(Cl)c2c(N=Nc3ccccc3[N+](=O)[O-])c(O)[nH]c12,–,> 100 µM,–,> 100 µM,–,35.3,–,> 100 µM,–,> 100,–,> 100,–,> 100 µM,–,> 100 µM,–,> 100,–,> 100
CN(C)c1ccc(/C=C\C2=[N+](C)c3ccccc3C2(C)C)cc1,1450,27.7 µM,342,4.38 µM,422,9.35,295,> 100 µM,28500,> 100,455,30.7,1.5,> 31.2 µM,369,4.46 µM,0.473,27,1.25,> 52.4
Fc1ccc(NC(=S)SCc2ccc3c(c2)OCO3)cc1F,–,32.2 µM,–,> 100 µM,–,51.8,–,42.6 µM,–,43.9,–,36.2,–,64 µM,–,61.7 µM,–,> 100,–,> 100
Cc1ccsc1C(=S)Nc1ccc(Cl)c(/C=N/OC(C)(C)C)c1,–,36.6 µM,–,> 100 µM,–,> 100,–,74.7 µM,–,61.7,–,> 100,–,69.1 µM,–,> 100 µM,–,> 100,–,41.1
O=C(Nc1ccc(-n2ccc3c(NC(=O)c4ccccc4)nccc32)cc1)c1ccc(Cl)c(C(F)(F)F)c1,1010,9.64 µM,1350,10 µM,674,6.52,687,9.78 µM,54.5,> 12.7,288,1.24,6.73,27.2 µM,351,6.26 µM,2.12,10.7,5.38,13.5
Nc1ccccc1C#C/C=C\C#Cc1ccccc1OC(F)(F)F,4390,23.9 µM,3490,20.5 µM,1390,6.04,2080,11.1 µM,1630,13.9,3670,> 100,12,50.7 µM,4780,27.3 µM,4.81,29.9,10.6,43.7
COc1cc2c(c(OC)c1OC)-c1ccc(NNC(N)=S)c(=O)cc1[C@@H](NC(C)=O)CC2,298,0.747 µM,238,0.623 µM,255,–,226,–,279,> 100,372,> 100,–,> 100 µM,301,1.92 µM,0.341,1.44,> 26,> 100
Nc1c(C(=O)c2cccc(CCS(N)(=O)=O)c2)cnn1-c1ccc(F)cc1,> 25000,> 25 µM,> 25000,> 25 µM,> 25000,> 25,> 25000,> 25 µM,> 25000,> 25,> 25000,> 25,> 25,> 25 µM,> 25000,> 25 µM,> 25,> 25,> 25,> 25
CCOC(=O)Cn1c(C(F)(F)F)nc2nc(Cl)c(Cl)nc21,–,> 100 µM,–,54.2 µM,–,> 100,–,42.9 µM,–,> 100,–,> 87.4,–,53.4 µM,–,34 µM,–,13.9,–,> 100
C=C(C)C(OC)C(O)CC1(C)CC(O)CC(C)(C2CCC3OC(C4(C)CCC(Br)C(C)(C)O4)CCC3(C)O2)O1 (stereo not given),18300,40.4 µM,22800,58.5 µM,19800,46.3,17100,> 56.7 µM,34900,> 100,19900,42.3,20.2,43 µM,17500,36.7 µM,17.3,32,16,33.5
COC([CH2][Hg][n]1cnc2c1c(=O)n(C)c(=O)n2C)CN1C(=O)c2ccccc2S1(=O)=O (stereo not given),> 100000,> 100 µM,> 100000,> 100 µM,> 100000,> 100,53400,> 100 µM,77200,> 100,> 100000,> 100,> 100,> 100 µM,> 100000,> 100 µM,> 100,> 100,> 100,> 100
Cc1ccc([N+](=O)[O-])cc1NC1=NCCO1,–,> 100 µM,–,> 100 µM,–,> 100,–,> 100 µM,–,> 100,–,> 100,–,> 100 µM,–,> 100 µM,–,> 100,–,> 100
O=C(Nc1ccccc1)c1c(O)[nH]c(=S)[nH]c1=O,–,96.3 µM and 68.9 µM,10900,74.8 µM and 71.3 µM,–,46.8,80400,67.3 µM and > 250 µM,–,53.8,–,92.8,83.1,112 µM and > 250 µM,69900,111 µM and > 250 µM,–,103,–,125
Cn1cc(C2=C(c3c4n(c5ccccc35)CCCCC4)C(=O)NC2=O)c2ccccc21,1420,7.23 µM,1210,8.05 µM,700,3.01,1390,16.2 µM,1190,> 20.9,1360,> 25,> 25,> 25 µM,2970,> 25 µM,5.4,> 17.3,6.38,> 25
CN1CCCCC1CCN1c2ccccc2Sc2ccc(Cl)cc21 (stereo not given),3180,8.47 µM,4040,14.6 µM,1860,4.04,2660,6.05 µM,3200,–,2680,9,2.45,5.52 µM,2770,7.38 µM,5.5,17.6,2.27,7.09
CC(C)=CCC\C(C)=C/C=C/C(C)=C\C=C\C(C)=C/C=C/C=C(C)\C=C\C=C(C)/C=C/C=C(/C)CCC=C(C)C,–,> 100 µM,–,> 100 µM,–,> 100,–,> 100 µM,–,> 100,–,> 100,–,> 100 µM,–,> 100 µM,–,> 100,–,> 100
CO/C(=N\N=C\c1ccc(C(F)(F)F)cc1)c1ccncc1,–,> 10 µM,–,> 10 µM,–,> 10,–,> 10 µM,–,> 10,–,> 10,–,> 10 µM,–,> 10 µM,–,> 10,–,> 10
